Data from patent US10093713B2, “GIP-GLP-1 dual agonist compounds and methods” (priority 2013, dated 2018).
*1 amine or outer side, *2 acyl side, *3 side chain or, on linkers, in order; H or OH if unused. Where a SMILES comes first, the peptide text is derived from it. Side-chain parts run from the residue outwards. [ ]: non-standard residue; d: D form. The star is where a group is joined. C20 diacid = O=C(O)CCCCCCCCCCCCCCCCCCC(=O)*; γGlu = O=C(O)[C@H](CCC(=O)[*:2])N[*:1]; Dap = NC[C@H](N)C(=O)O; AEEA = NCCOCCOCC(=O)O; Aib = CC(C)(N)C(=O)O

Tests used:
[1] = target: T1, human GIP R (Homo sapiens, UniProt P48546); assay: Human GIP receptor (GIP R) activity assay, cAMP induction (AlphaScreen) in HEK293 cells; assay type: cell-based; details: Table 3; most comprehensive data; read-out: hGIP-R cAMP EC50 average value
T1 construct: expressed in transfected cells
T1 sequence (P48546 22-466): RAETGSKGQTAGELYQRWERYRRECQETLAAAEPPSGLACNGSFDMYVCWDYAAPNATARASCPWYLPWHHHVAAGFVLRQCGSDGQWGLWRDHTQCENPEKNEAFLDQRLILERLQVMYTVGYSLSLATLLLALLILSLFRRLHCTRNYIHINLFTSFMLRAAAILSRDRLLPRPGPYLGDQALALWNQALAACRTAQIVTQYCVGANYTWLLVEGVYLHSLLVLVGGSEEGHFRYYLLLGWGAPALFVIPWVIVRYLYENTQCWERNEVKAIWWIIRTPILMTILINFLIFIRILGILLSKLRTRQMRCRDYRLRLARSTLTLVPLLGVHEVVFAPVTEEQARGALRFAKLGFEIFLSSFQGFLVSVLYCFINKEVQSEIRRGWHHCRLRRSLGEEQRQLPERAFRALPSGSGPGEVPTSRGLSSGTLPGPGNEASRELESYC
Procedure, shortened: (§1)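 Stable HEK293 clones expressing human GIP R or GLP-1 R, seeded 1 day before; cells washed in Tyrode's buffer (10 mM HEPES, pH 7.4), stimulated, then lysed. cAMP measured by AlphaScreen bead competition (1 h, room temperature, dark). EC50 = concentration giving half-maximal cAMP elevation, from curves of absolute cAMP (nM) vs log concentration.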

[2] = target: T2, human GLP-1 R (Homo sapiens, UniProt P43220); assay: Human GLP-1 receptor (GLP-1 R) activity assay, cAMP induction (AlphaScreen) in HEK293 cells; assay type: cell-based; details: Table 3; most comprehensive data; read-out: hGLP-1-R cAMP EC50 average value
T2 construct: expressed in transfected cells
T2 sequence (P43220 24-463): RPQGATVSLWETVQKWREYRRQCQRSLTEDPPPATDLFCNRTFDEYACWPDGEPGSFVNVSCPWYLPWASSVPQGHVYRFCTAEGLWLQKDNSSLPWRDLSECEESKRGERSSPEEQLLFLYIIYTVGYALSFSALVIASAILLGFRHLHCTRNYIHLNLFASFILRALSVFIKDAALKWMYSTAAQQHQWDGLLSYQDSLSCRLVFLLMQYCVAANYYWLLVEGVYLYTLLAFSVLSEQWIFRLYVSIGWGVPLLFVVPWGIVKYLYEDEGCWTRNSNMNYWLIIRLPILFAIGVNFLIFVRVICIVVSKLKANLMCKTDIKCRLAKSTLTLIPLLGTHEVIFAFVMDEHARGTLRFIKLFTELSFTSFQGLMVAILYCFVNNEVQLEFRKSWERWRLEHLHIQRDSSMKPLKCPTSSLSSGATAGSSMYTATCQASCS
Procedure, shortened: as §1

| Structure (SMILES) | EC50 [1] [nM] | EC50 [2] [nM] |
| --- | --- | --- |
| CC[C@H](C)[C@H](NC(=O)[C@H](CO)NC(=O)[C@H](Cc1ccc(O)cc1)NC(=O)[C@H](CC(=O)O)NC(=O)[C@H](CO)NC(=O)[C@@H](NC(=O)[C@H](Cc1ccccc1)NC(=O)[C@@H](NC(=O)CNC(=O)[C@H](CCC(=O)O)NC(=O)C(C)(C)NC(=O)[C@@H](N)Cc1ccc(O)cc1)[C@@H](C)O)[C@@H](C)O)C(=O)N[C@@H](Cc1ccc(O)cc1)C(=O)N[C@@H](CC(C)C)C(=O)N[C@@H](CC(=O)O)C(=O)N[C@@H](CCCCN)C(=O)N[C@@H](CCCCNC(=O)COCCOCCNC(=O)COCCOCCNC(=O)[C@H](CN)NC(=O)CCCCCCCCCCCCCCCCCCC(=O)O)C(=O)N[C@@H](C)C(=O)N[C@@H](CCC(N)=O)C(=O)N[C@@H](CCCNC(=N)N)C(=O)N[C@@H](C)C(=O)N[C@@H](Cc1ccccc1)C(=O)N[C@H](C(=O)N[C@@H](CCC(=O)O)C(=O)N[C@@H](Cc1c[nH]c2ccccc12)C(=O)N[C@@H](CC(C)C)C(=O)N[C@@H](CC(C)C)C(=O)N[C@@H](C)C(=O)N[C@@H](CCC(N)=O)C(=O)NCC(=O)N1CCC[C@H]1C(=O)N[C@@H](CO)C(=O)N[C@@H](CO)C(=O)NCC(=O)N[C@@H](C)C(=O)N1CCC[C@H]1C(=O)N1CCC[C@H]1C(=O)N1CCC[C@H]1C(=O)N[C@@H](CO)C(N)=O)C(C)C [Compound 37] (H-Y[Aib]EGTFTSDYSIYLDKK([AEEA-AEEA-Dap-C20 diacid])AQRAFVEWLLAQGPSSGAPPPS-NH2) | 0.017 | 0.014 |
| CC[C@H](C)[C@H](NC(=O)[C@H](CO)NC(=O)[C@H](Cc1ccc(O)cc1)NC(=O)[C@H](CC(=O)O)NC(=O)[C@H](CO)NC(=O)[C@@H](NC(=O)[C@H](Cc1ccccc1)NC(=O)[C@@H](NC(=O)CNC(=O)[C@H](CCC(=O)O)NC(=O)C(C)(C)NC(=O)[C@@H](N)Cc1ccc(O)cc1)[C@@H](C)O)[C@@H](C)O)C(=O)N[C@@H](C)C(=O)N[C@@H](CC(C)C)C(=O)N[C@@H](CC(=O)O)C(=O)N[C@@H](CCCCN)C(=O)N[C@@H](CCCCNC(=O)COCCOCCNC(=O)COCCOCCNC(=O)CC[C@H](NC(=O)CCCCCCCCCCCCCCCCCCC(=O)O)C(=O)O)C(=O)N[C@@H](C)C(=O)N[C@@H](CCC(N)=O)C(=O)N[C@@H](CCCNC(=N)N)C(=O)N[C@@H](C)C(=O)N[C@@H](Cc1ccccc1)C(=O)N[C@H](C(=O)N[C@@H](CCC(=O)O)C(=O)N[C@@H](Cc1c[nH]c2ccccc12)C(=O)N[C@@H](CC(C)C)C(=O)N[C@@H](CC(C)C)C(=O)N[C@@H](C)C(=O)N[C@@H](CCC(N)=O)C(=O)N[C@@H](CCCCN)C(=O)N1CCC[C@H]1C(=O)N[C@@H](CO)C(=O)N[C@@H](CO)C(=O)NCC(=O)N[C@@H](C)C(=O)N1CCC[C@H]1C(=O)N1CCC[C@H]1C(=O)N1CCC[C@H]1C(=O)N[C@@H](CO)C(N)=O)C(C)C [Compound 38] (H-Y[Aib]EGTFTSDYSIALDKK([AEEA-AEEA-γGlu-C20 diacid])AQRAFVEWLLAQKPSSGAPPPS-NH2) | 0.005 | 0.012 |
| CC[C@H](C)[C@H](NC(=O)[C@H](CO)NC(=O)[C@H](Cc1ccc(O)cc1)NC(=O)[C@H](CC(=O)O)NC(=O)[C@H](CO)NC(=O)[C@@H](NC(=O)[C@H](Cc1ccccc1)NC(=O)[C@@H](NC(=O)CNC(=O)[C@H](CCC(=O)O)NC(=O)[C@@H](C)NC(=O)[C@@H](N)Cc1ccc(O)cc1)[C@@H](C)O)[C@@H](C)O)C(=O)N[C@@H](C)C(=O)N[C@@H](CC(C)C)C(=O)N[C@@H](CC(=O)O)C(=O)N[C@@H](CCCCN)C(=O)N[C@@H](CCCCNC(=O)COCCOCCNC(=O)COCCOCCNC(=O)CC[C@H](NC(=O)CCCCCCCCCCCCCCCCCCC(=O)O)C(=O)O)C(=O)N[C@@H](C)C(=O)N[C@@H](CCC(N)=O)C(=O)N[C@@H](CCCNC(=N)N)C(=O)N[C@@H](C)C(=O)N[C@@H](Cc1ccccc1)C(=O)N[C@H](C(=O)N[C@@H](CCC(=O)O)C(=O)N[C@@H](Cc1c[nH]c2ccccc12)C(=O)N[C@@H](CC(C)C)C(=O)N[C@@H](CC(C)C)C(=O)N[C@@H](C)C(=O)N[C@@H](CCC(N)=O)C(=O)N[C@@H](CCCCN)C(=O)N1CCC[C@H]1C(=O)N[C@@H](CO)C(=O)N[C@@H](CO)C(=O)NCC(=O)N[C@@H](C)C(=O)N1CCC[C@H]1C(=O)N1CCC[C@H]1C(=O)N1CCC[C@H]1C(=O)N[C@@H](CO)C(N)=O)C(C)C [Compound 39] (H-Y[dA]EGTFTSDYSIALDKK([AEEA-AEEA-γGlu-C20 diacid])AQRAFVEWLLAQKPSSGAPPPS-NH2) | 0.011 | 0.006 |
| CC[C@H](C)[C@H](NC(=O)[C@H](CO)NC(=O)[C@H](Cc1ccc(O)cc1)NC(=O)[C@H](CC(=O)O)NC(=O)[C@H](CO)NC(=O)[C@@H](NC(=O)[C@H](Cc1ccccc1)NC(=O)[C@@H](NC(=O)CNC(=O)[C@H](CCC(=O)O)NC(=O)C(C)(C)NC(=O)[C@@H](N)Cc1ccc(O)cc1)[C@@H](C)O)[C@@H](C)O)C(=O)N[C@@H](C)C(=O)N[C@@H](CC(C)C)C(=O)N[C@@H](CC(=O)O)C(=O)N[C@@H](CCCCN)C(=O)N[C@@H](CCCCNC(=O)COCCOCCNC(=O)COCCOCCNC(=O)CC[C@H](NC(=O)CCCCCCCCCCCCCCCCCCC(=O)O)C(=O)O)C(=O)N[C@@H](C)C(=O)N[C@@H](CCC(N)=O)C(=O)N[C@@H](CCCNC(=N)N)C(=O)N[C@@H](C)C(=O)N[C@@H](Cc1ccccc1)C(=O)N[C@H](C(=O)N[C@@H](CCC(=O)O)C(=O)N[C@@H](Cc1c[nH]c2ccccc12)C(=O)N[C@@H](CC(C)C)C(=O)N[C@@H](CC(C)C)C(=O)N[C@@H](C)C(=O)N[C@@H](C)C(=O)N1CCC[C@H]1C(=O)N[C@@H](CO)C(=O)N[C@@H](CO)C(=O)NCC(=O)N[C@@H](C)C(=O)N1CCC[C@H]1C(=O)N1CCC[C@H]1C(=O)N1CCC[C@H]1C(=O)N[C@@H](CO)C(N)=O)C(C)C [Compound 40] (H-Y[Aib]EGTFTSDYSIALDKK([AEEA-AEEA-γGlu-C20 diacid])AQRAFVEWLLAAPSSGAPPPS-NH2) | 0.023 | 0.021 |
| CC[C@H](C)[C@H](NC(=O)[C@H](CO)NC(=O)[C@H](Cc1ccc(O)cc1)NC(=O)[C@H](CC(=O)O)NC(=O)[C@H](CO)NC(=O)[C@@H](NC(=O)[C@H](Cc1ccccc1)NC(=O)[C@@H](NC(=O)CNC(=O)[C@H](CCC(=O)O)NC(=O)C(C)(C)NC(=O)[C@@H](N)Cc1ccc(O)cc1)[C@@H](C)O)[C@@H](C)O)C(=O)N[C@@H](C)C(=O)N[C@@H](CC(C)C)C(=O)N[C@@H](CC(=O)O)C(=O)N[C@@H](CCCCN)C(=O)N[C@@H](CCCCNC(=O)COCCOCCNC(=O)COCCOCCNC(=O)CC[C@H](NC(=O)CCCCCCCCCCCCCCCCCCC(=O)O)C(=O)O)C(=O)N[C@@H](C)C(=O)N[C@@H](C)C(=O)N[C@@H](CCCCN)C(=O)N[C@@H](CCC(=O)O)C(=O)N[C@@H](Cc1ccccc1)C(=O)N[C@H](C(=O)N[C@@H](CCC(=O)O)C(=O)N[C@@H](Cc1c[nH]c2ccccc12)C(=O)N[C@@H](CC(C)C)C(=O)N[C@@H](CC(C)C)C(=O)N[C@@H](CO)C(=O)N[C@@H](C)C(=O)NCC(=O)N1CCC[C@H]1C(=O)N[C@@H](CO)C(=O)N[C@@H](CO)C(=O)NCC(=O)N[C@@H](C)C(=O)N1CCC[C@H]1C(=O)N1CCC[C@H]1C(=O)N1CCC[C@H]1C(=O)N[C@@H](CO)C(N)=O)C(C)C [Compound 41] (H-Y[Aib]EGTFTSDYSIALDKK([AEEA-AEEA-γGlu-C20 diacid])AAKEFVEWLLSAGPSSGAPPPS-NH2) | 0.015 | 0.038 |
| CC[C@H](C)[C@H](NC(=O)[C@H](CO)NC(=O)[C@H](Cc1ccc(O)cc1)NC(=O)[C@H](CC(=O)O)NC(=O)[C@H](CO)NC(=O)[C@@H](NC(=O)[C@H](Cc1ccccc1)NC(=O)[C@@H](NC(=O)CNC(=O)[C@H](CCC(=O)O)NC(=O)C(C)(C)NC(=O)[C@@H](N)Cc1ccc(O)cc1)[C@@H](C)O)[C@@H](C)O)C(=O)N[C@@H](C)C(=O)N[C@@H](CC(C)C)C(=O)N[C@@H](CC(=O)O)C(=O)N[C@@H](CCCCN)C(=O)N[C@@H](CCCCNC(=O)COCCOCCNC(=O)COCCOCCNC(=O)CC[C@H](NC(=O)CCCCCCCCCCCCCCCCCCC(=O)O)C(=O)O)C(=O)N[C@@H](C)C(=O)N[C@@H](CCC(N)=O)C(=O)N[C@@H](CCCNC(=N)N)C(=O)N[C@@H](C)C(=O)N[C@@H](Cc1ccccc1)C(=O)N[C@H](C(=O)N[C@@H](CCC(=O)O)C(=O)N[C@@H](Cc1c[nH]c2ccccc12)C(=O)N[C@@H](CC(C)C)C(=O)N[C@@H](CC(C)C)C(=O)N[C@@H](C)C(=O)N[C@@H](CCC(N)=O)C(=O)NCC(=O)N1CCC[C@H]1C(=O)N[C@@H](CO)C(=O)N[C@@H](CO)C(=O)NCC(=O)N[C@@H](C)C(=O)N1CCC[C@H]1C(=O)N1CCC[C@H]1C(=O)N1CCC[C@H]1C(=O)N[C@@H](CO)C(N)=O)C(C)C [Compound 42] (H-Y[Aib]EGTFTSDYSIALDKK([AEEA-AEEA-γGlu-C20 diacid])AQRAFVEWLLAQGPSSGAPPPS-NH2) | 0.009 | 0.017 |
